Measurements as given in publication PMC12024912, “Druggability Studies of Benzene Sulfonamide Substituted Diarylamide (E3) as a Novel Diuretic” (Biomedicines, 2025).
Entries after “also recorded” stand apart in the source; their conditions may differ.

Assays:
Blood stability, human = assay type: in vitro ADME; details: plasma, n=3
Procedure: Plasma from mice, rats, rabbits, and humans was obtained from blood after centrifugation at 3000 r/min for 10 min. Simulated gastric fluid (SGF, pH = 1, containing pepsin) and simulated intestinal fluid (SIF, pH = 6.8, containing trypsin) were configured previously in the experiments. SD rats and mice were collected, and after removing the mucus layer from the small intestine and colon, 20 times the volume of liquid bacterial culture medium was added. An intestinal microbiota suspension was obtained after anaerobic cultivation on a shaking table at 37 °C for 12 h. In the aforementioned systems, E3 was added at a final concentration of 1 μmol/L at 37 °C for different incubation times (0, 10, 20, 30, 60, 120, and 240 min). In liver metabolic stability assays, E3 was incubated with liver microsomes or liver homogenate from mice or rats for 60 min at 37 °C. The stop solution, 5 ng/mL tolbutamide (internal standard, IS) in acetonitrile, was added to stop the metabolic process. Post-centrifugation (18,000× g, 10 min, 4 °C), supernatants were subjected to liquid chromatography–tandem mass spectrometry (LC–MS/MS). Analyte-to-IS peak area ratios quantified residual percentages via Equation (2):Remaining% = (E3peak area/ISpeak area at different time)/(E3peak area/ISpeak area at 0 min) × 100%.(2)

[1] = Tissue distribution study in rats; assay type: in vivo, rat
Procedure: Male SD rats were randomly divided into four groups and received a single oral dose of E3 at 4 mg/kg. Blood and tissue samples (i.e., heart, liver, kidney, spleen, lung, brain, testis, skin, muscle, leg bone, stomach, small intestine, and colon) were collected at 0.5 h, 2 h, 6 h, and 24 h after dosing. Tissues were perfused with cold saline, blotted, weighed, and homogenized (10 vol/wt ice-cold H2O; T10 homogenizer, IKA, Staufen, Germany). The rats’ right shin bone was decalcified in methanol (4 °C, 12 h). Processed samples (−80 °C storage) underwent LC-MS/MS analysis as described.
The analyte E3 and IS were dissolved in DMSO to generate the stock solutions. The working calibration of E3 was gradient-diluted with MeOH/H2O (1:1, v/v). Three microliters of working solutions were spiked with 27 μL of the blank rat plasma to establish the calibration standards. The final concentrations of the standard samples were 1, 2, 5, 10, 50, 250, 500, and 1000 ng/mL. Quality control samples (3/100/800 ng/mL) were prepared using identical protein precipitation protocols. Briefly, 30 μL calibrators and biological matrices were mixed with 450 μL stop solution, vortexed (5 min), and centrifuged (18,000× g, 10 min, 4 °C). Processed supernatants (2 μL injection volume) were subjected to LC-MS/MS analysis.
The analysis was conducted by an Xevo TQ-S Cronos Triple Quadrupole Mass Spectrometer coupled with an ACQUITY UPLC (Waters Corp, Milford, MA, USA). The chromatographic separation was conducted in an ACQUITY UPLC BEH C18 1.7 µm column (Waters, Milford, MA, USA) at 40 °C with a flow rate of 0.4 mL/min. The mobile phases were 0.1% (v/v) formic acid in water (A) and pure ACN (B). […] An electrospray ionization (ESI) source with multiple–reaction monitoring (MRM) in positive–ion mode was employed to quantify the analytes with the transitions of m/z 385.11 > 244.19 and m/z 271.136 > 91.01 for E3 and IS, respectively. The optimized cone voltage is 10 V and 24 V for E3 and IS, respectively. The collision energy is 12 V and 32 V for E3 and IS, respectively. MassLynx v4.2 (Waters Corp, Milford, MA, USA) was used for data acquisition and analysis.

[2] = Subacute oral toxicity test in mice; assay type: in vivo; details: male, mouse, in vivo, 1000 mg/kg, oral, 30 d, read-out: no observed adverse effect level (NOAEL)
Procedure: (§1) The subacute oral toxicity test was performed according to “Guidance on Repeated Dose Toxicity Study for Pharmaceuticals” (2014). […] Eighteen male mice were evenly divided into two groups. Mice of the control group were orally administered with solvent (0.5% CMC-Na). Another group was orally administered with E3 1000 mg/kg. The solvent or E3 was administered once a day for 30 continuous days and withdrawn for 14 d for recovery. After the 30-day treatment, 12 mice (6/group) were chosen at random and sacrificed for necropsy.
(§2) During the study, the clinical symptoms, morbidity, and mortality of mice were observed twice a day at the side of the cage. Changes in appearance, behavior, appetite, gait, secretions, and excretions of the rats were meticulously documented. The body weights were measured before the start of the experiment, and the weights were measured every 2 d thereafter. Echocardiography was performed and evaluated every 10 d. Under anesthesia, blood samples were taken before the autopsy for hematological and clinical biochemistry analysis by an automated hematology analyzer (HEMAVET 950FS, Drew Scientific, TX, USA) and an automated biochemical analyzer (BS-180, Mindray Diagnostics, Shenzhen, China). The following organs were weighed: heart, liver, kidney, spleen, lung, thymus gland, testis, and brain. Furthermore, the corresponding organ/body weight ratio was computed. A comprehensive histopathological analysis was performed on vital tissues and organs.

mice = assay: Subacute oral toxicity test in mice; assay type: in vivo
Procedure: as §1, §2

Structure (SMILES): CC(=O)c1ccc(C(=O)Nc2cccc(NS(=O)(=O)c3ccccc3)c2)o1 [Compound E3, 5-acetyl-N-(3-(phenylsulfonamido)phenyl)furan-2-carboxamide]
- remaining at 1 μmol/L (Blood stability, human): 54.1%
- permeability to the blood–brain barrier (BBB) and blood–testis barrier (BTB) ([1]; inferred from tissue distribution): lower permeability; also recorded: low permeability
- concentration in kidney relative to other tissues ([1]; single oral 4 mg/kg): highest concentration
- distribution in the brain, testis ([1]; single oral 4 mg/kg): relatively low distribution
- time of peak drug concentration in most tissues ([1]; single oral 4 mg/kg, post-administration): 2 h
- NOAEL at 30 d [2]: 1000 mg/kg/day
- appearance, behavior, secretions, and excretions (mice; 1000 mg/kg daily oral, 30 days): no apparent abnormality
- body weight or organ indexes (mice; 1000 mg/kg daily oral, 30 days): no significant change
- histopathology of brain, lung, heart, spleen, liver, kidney, testis (mice; 1000 mg/kg daily oral, 30 days): No histopathological toxic lesion
- blood parameters and blood biochemical indexes (mice; 1000 mg/kg daily oral, 30 days, vs control): no significant changes
- left ventricular ejection fraction and fractional shortening (cardiac ultrasound) (mice; 1000 mg/kg daily, during and after administration): no significant abnormality
- EOS (mice; 1 g/kg, 30 d, mean, n=9): 0.13%
- HB (mice; 1 g/kg, 30 d, mean, n=9): 80.11 g/L
- HCT (mice; 1 g/kg, 30 d, mean, n=9): 41.04%
- LYM (mice; 1 g/kg, 30 d, mean, n=9): 74.12%
- MCH (mice; 1 g/kg, 30 d, mean, n=9): 9.96 pg
- MCHC (mice; 1 g/kg, 30 d, mean, n=9): 195.33 g/L
- MCV (mice; 1 g/kg, 30 d, mean, n=9): 51.09 fL
- MONO (mice; 1 g/kg, 30 d, mean, n=9): 3.02%
- MPV (mice; 1 g/kg, 30 d, mean, n=9): 3.01 fL
- NEU (mice; 1 g/kg, 30 d, mean, n=9): 22.71%
- PLT (mice; 1 g/kg, 30 d, mean, n=9): 1313.22 109/L
- RBC (mice; 1 g/kg, 30 d, mean, n=9): 8.03 1012/L
- RDW (mice; 1 g/kg, 30 d, mean, n=9): 16.07%
- WBC (mice; 1 g/kg, 30 d, mean, n=9): 8.37 109/L
- delayed toxicity (14 d recovery period) (mice; after 30 d of 1000 mg/kg): no delayed toxicity
